The results in this text go back to patent publication US20080317702A1, “METHOD FOR TREATING MICROORGANISMS AND/OR INFECTIOUS AGENTS” (priority 2007, published 2008).

“And” between values parts separate entries of the source, which are not always exact repeats. Equal values may be shown once.

This series has as its system HeLa cells. Kind of series: Toxicity to HeLa cells in culture, MTT (Example 23). It counts as cell-based, human. The settings on record: 48 hours of culture. On the procedure:
The toxicity of Example 1 is compared to Chlorohexidine gluconate (a commonly used oral antiseptic) to human HeLa cells in culture is determined. HeLa cells are plated at subconfluency into a 96-well plate tissue culture plate, and after attachment, treated with the indicated final concentrations of Example 1 polymer or Chlorohexidine gluconate in triplicates. After 48 hours of culture, MTT reagent is added for two 2 hours to permit the development of viability-indicating color. 1 μM PAO (phenylarsine oxide) is used as a positive (effective killing) control. […] Furthermore, the minimum inhibitory concentration of Example 1 polymer is found to be about 10^−3% while that for the chlorohexidine gluconate is 6×10^−5%. This means that the Example 1 polymer is about […] less toxic to HeLa cells in culture than chlorohexidine gluconate.

In the case of `N=C(NCCCCCCNC(=N)NC(=N)Nc1ccc(Cl)cc1)NC(=N)Nc1ccc(Cl)cc1.O=C(O)[C@H](O)[C@@H](O)[C@H](O)[C@H](O)CO.O=C(O)[C@H](O)[C@@H](O)[C@H](O)[C@H](O)CO` [chlorohexidine gluconate], the “Lethal dose 50 (LD50) for HeLa cells” value is ~0.0004% and > 1.2×10^−4%.
